Reference: ChEMBL document CHEMBL1138371, “Discovery of low nanomolar non-hydroxamate inhibitors of tumor necrosis factor-alpha converting enzyme (TACE)” (Bioorg Med Chem Lett, 2007)

What follows are molecules tested on Blood (assay: Inhibition of LPS-stimulated TNFalpha production in human whole blood).
Type: functional, tissue-based

How did the IC50 turn out when Cc1cc(COc2ccc(C(=O)NCC3(C4CCNCC4)C(=O)NC(=O)NC3=O)cc2)c2ccccc2n1 was run?
The IC50 was 48.7 µM.

Which IC50 does the source give for Cc1cc(COc2ccc(C(=O)NC3COCC34C(=O)NC(=O)NC4=O)cc2)c2ccccc2n1 (stereo not given) here?
Its IC50 is 50 µM.

Which IC50 does the source give for Cc1cc(COc2ccc(C(=O)NCC3(N4CCN(C(=O)C(C)(C)C)CC4)C(=O)NC(=O)NC3=O)cc2)c2ccccc2n1 here?
Its IC50 is 38 µM.

Cc1cc(COc2ccc(C(=O)NCC3(Cc4ccccc4)C(=O)NC(=O)NC3=O)cc2)c2ccccc2n1 was tested. Which IC50 did it give?
The IC50 was > 50 µM.

How did the IC50 turn out when Cc1cc(COc2ccc(C(=O)NCC3(C4CCN(C(=O)C(C)(C)C)CC4)C(=O)NC(=O)NC3=O)cc2)c2ccccc2n1 was run?
Its IC50 is 39 µM.

Cc1cc(COc2ccc(C(=O)NC3CN(S(C)(=O)=O)CC34C(=O)NC(=O)NC4=O)cc2)c2ccccc2n1 (stereo not given) was tested. Which IC50 did it give?
The IC50 was 12.6 µM.

Cc1cc(COc2ccc(C(=O)NCC3(C4CCN(C5CCOCC5)CC4)C(=O)NC(=O)NC3=O)cc2)c2ccccc2n1 was tested. Which IC50 did it give?
The IC50 was > 50 µM.

These molecules were tested against Collagenase 3 (Homo sapiens, UniProt P45452) (assay: Inhibition of MMP13).

Which Ki does the source give for Cc1cc(COc2ccc(C(=O)NC3COCC34C(=O)NC(=O)NC4=O)cc2)c2ccccc2n1 (stereo not given) here?
The Ki was 3.53 µM.

For Cc1cc(COc2ccc(C(=O)NC3CN(S(C)(=O)=O)CC34C(=O)NC(=O)NC4=O)cc2)c2ccccc2n1 (stereo not given), which Ki is on record?
Its Ki is 3.72 µM.

These molecules were tested against T1, Matrilysin (Homo sapiens, UniProt P09237) (assay: Inhibition of MMP7).
T1 sequence (P09237 whole entry): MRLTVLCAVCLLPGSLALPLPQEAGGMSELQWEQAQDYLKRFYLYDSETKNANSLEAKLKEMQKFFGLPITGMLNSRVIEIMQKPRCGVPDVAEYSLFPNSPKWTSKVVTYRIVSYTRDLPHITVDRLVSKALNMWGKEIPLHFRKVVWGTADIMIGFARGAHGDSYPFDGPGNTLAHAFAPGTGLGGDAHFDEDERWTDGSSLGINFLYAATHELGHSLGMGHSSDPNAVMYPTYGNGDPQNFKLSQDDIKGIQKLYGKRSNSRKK

Cc1cc(COc2ccc(C(=O)NCC3(C4CCNCC4)C(=O)NC(=O)NC3=O)cc2)c2ccccc2n1 was tested. Which Ki did it give?
Its Ki is > 6.37 µM.

For Cc1cc(COc2ccc(C(=O)NC3COCC34C(=O)NC(=O)NC4=O)cc2)c2ccccc2n1 (stereo not given), which Ki is on record?
Its Ki is > 6.37 µM.

For Cc1cc(COc2ccc(C(=O)NCC3(N4CCN(C(=O)C(C)(C)C)CC4)C(=O)NC(=O)NC3=O)cc2)c2ccccc2n1, which Ki is on record?
Its Ki is > 6.37 µM.

With Cc1cc(COc2ccc(C(=O)NCC3(Cc4ccccc4)C(=O)NC(=O)NC3=O)cc2)c2ccccc2n1 as the molecule, how does the Ki read?
The Ki was > 6.37 µM.

For Cc1cc(COc2ccc(C(=O)NCC3(C4CCN(C(=O)C(C)(C)C)CC4)C(=O)NC(=O)NC3=O)cc2)c2ccccc2n1, which Ki is on record?
The Ki was > 6.37 µM.

Which Ki does the source give for Cc1cc(COc2ccc(C(=O)NC3CN(S(C)(=O)=O)CC34C(=O)NC(=O)NC4=O)cc2)c2ccccc2n1 (stereo not given) here?
The Ki was > 6.37 µM.

How did the Ki turn out when Cc1cc(COc2ccc(C(=O)NCC3(C4CCN(C5CCOCC5)CC4)C(=O)NC(=O)NC3=O)cc2)c2ccccc2n1 was run?
Its Ki is > 6.37 µM.

The molecules below were run against Macrophage metalloelastase (Homo sapiens, UniProt P39900) (assay: Inhibition of MMP12).
Macrophage metalloelastase, sequence (P39900 whole entry): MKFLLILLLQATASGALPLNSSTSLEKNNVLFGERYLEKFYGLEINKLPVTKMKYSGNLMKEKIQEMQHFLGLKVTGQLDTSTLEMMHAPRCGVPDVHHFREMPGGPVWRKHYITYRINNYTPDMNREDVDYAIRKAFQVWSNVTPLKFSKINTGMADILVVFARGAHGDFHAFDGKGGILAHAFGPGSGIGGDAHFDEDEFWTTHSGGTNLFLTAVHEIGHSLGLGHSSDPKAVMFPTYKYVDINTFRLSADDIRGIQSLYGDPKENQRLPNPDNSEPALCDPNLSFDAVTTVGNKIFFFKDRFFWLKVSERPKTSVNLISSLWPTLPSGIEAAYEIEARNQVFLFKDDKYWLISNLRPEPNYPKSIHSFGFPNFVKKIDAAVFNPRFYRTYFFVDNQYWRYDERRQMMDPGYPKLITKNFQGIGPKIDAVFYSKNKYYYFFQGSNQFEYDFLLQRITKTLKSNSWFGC

Which Ki does the source give for Cc1cc(COc2ccc(C(=O)NCC3(C4CCNCC4)C(=O)NC(=O)NC3=O)cc2)c2ccccc2n1 here?
The Ki was > 6.02 µM.

With Cc1cc(COc2ccc(C(=O)NC3COCC34C(=O)NC(=O)NC4=O)cc2)c2ccccc2n1 (stereo not given) as the molecule, how does the Ki read?
Its Ki is > 4.04 µM.

Cc1cc(COc2ccc(C(=O)NCC3(N4CCN(C(=O)C(C)(C)C)CC4)C(=O)NC(=O)NC3=O)cc2)c2ccccc2n1 was tested. Which Ki did it give?
The Ki was 0.05 µM.

Which Ki does the source give for Cc1cc(COc2ccc(C(=O)NCC3(Cc4ccccc4)C(=O)NC(=O)NC3=O)cc2)c2ccccc2n1 here?
Its Ki is 0.39 µM.

How did the Ki turn out when Cc1cc(COc2ccc(C(=O)NCC3(C4CCN(C(=O)C(C)(C)C)CC4)C(=O)NC(=O)NC3=O)cc2)c2ccccc2n1 was run?
Its Ki is > 6.02 µM.

How did the Ki turn out when Cc1cc(COc2ccc(C(=O)NC3CN(S(C)(=O)=O)CC34C(=O)NC(=O)NC4=O)cc2)c2ccccc2n1 (stereo not given) was run?
The Ki was 1.29 µM.

Cc1cc(COc2ccc(C(=O)NCC3(C4CCN(C5CCOCC5)CC4)C(=O)NC(=O)NC3=O)cc2)c2ccccc2n1 was tested. Which Ki did it give?
Its Ki is > 6.02 µM.

Organism: Homo sapiens
Assay: Inhibition of aggrecanase at 1 uM

For Cc1cc(COc2ccc(C(=O)NC3CCCCC34C(=O)NC(=O)NC4=O)cc2)c2ccccc2n1 (stereo not given), which inhibition is on record?
Its inhibition is 29%.

How did the inhibition turn out when Cc1cc(COc2ccc(C(=O)NCC3(C4CCNCC4)C(=O)NC(=O)NC3=O)cc2)c2ccccc2n1 was run?
Its inhibition is 1%.

Which inhibition does the source give for Cc1cc(COc2ccc(C(=O)NC3COCC34C(=O)NC(=O)NC4=O)cc2)c2ccccc2n1 (stereo not given) here?
The inhibition was 12%.

Which inhibition does the source give for Cc1cc(COc2ccc(C(=O)NCC3(N4CCN(C(=O)C(C)(C)C)CC4)C(=O)NC(=O)NC3=O)cc2)c2ccccc2n1 here?
Its inhibition is 7%.

Which inhibition does the source give for Cc1cc(COc2ccc(C(=O)NCC3(Cc4ccccc4)C(=O)NC(=O)NC3=O)cc2)c2ccccc2n1 here?
The inhibition was 34%.

Which inhibition does the source give for Cc1cc(COc2ccc(C(=O)NCC3(C4CCN(C(=O)C(C)(C)C)CC4)C(=O)NC(=O)NC3=O)cc2)c2ccccc2n1 here?
Its inhibition is 10%.

With Cc1cc(COc2ccc(C(=O)NC3CN(S(C)(=O)=O)CC34C(=O)NC(=O)NC4=O)cc2)c2ccccc2n1 (stereo not given) as the molecule, how does the inhibition read?
Its inhibition is 26%.

Cc1cc(COc2ccc(C(=O)NCC3(C4CCN(C5CCOCC5)CC4)C(=O)NC(=O)NC3=O)cc2)c2ccccc2n1 was tested. Which inhibition did it give?
The inhibition was 5%.

The molecules below were run against Disintegrin and metalloproteinase domain-containing protein 17 (Sus scrofa, UniProt O77636) (assay: Inhibition of porcine TACE).
Disintegrin and metalloproteinase domain-containing protein 17, sequence (O77636 whole entry, the tested form may be a part): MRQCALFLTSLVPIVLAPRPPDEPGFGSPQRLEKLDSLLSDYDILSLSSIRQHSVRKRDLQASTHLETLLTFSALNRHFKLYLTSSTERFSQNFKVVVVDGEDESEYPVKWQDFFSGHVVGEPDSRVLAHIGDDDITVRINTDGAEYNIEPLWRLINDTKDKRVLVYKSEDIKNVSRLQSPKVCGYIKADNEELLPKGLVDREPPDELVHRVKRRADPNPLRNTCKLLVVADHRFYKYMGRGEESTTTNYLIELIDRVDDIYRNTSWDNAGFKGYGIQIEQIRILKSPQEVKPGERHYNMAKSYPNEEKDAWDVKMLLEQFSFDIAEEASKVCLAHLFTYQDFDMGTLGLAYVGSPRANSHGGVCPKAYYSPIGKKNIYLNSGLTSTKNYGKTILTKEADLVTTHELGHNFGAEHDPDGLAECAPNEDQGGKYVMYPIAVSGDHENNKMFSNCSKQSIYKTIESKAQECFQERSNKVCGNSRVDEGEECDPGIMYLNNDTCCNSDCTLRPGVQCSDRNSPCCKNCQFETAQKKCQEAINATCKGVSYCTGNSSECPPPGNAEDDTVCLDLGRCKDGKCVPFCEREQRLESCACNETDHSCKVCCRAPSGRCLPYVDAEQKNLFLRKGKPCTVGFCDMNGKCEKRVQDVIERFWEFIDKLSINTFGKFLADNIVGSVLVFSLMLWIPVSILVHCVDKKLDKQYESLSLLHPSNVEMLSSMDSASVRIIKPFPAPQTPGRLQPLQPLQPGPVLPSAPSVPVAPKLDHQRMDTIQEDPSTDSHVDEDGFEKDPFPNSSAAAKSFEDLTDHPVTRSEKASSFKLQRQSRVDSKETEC

With Cc1cc(COc2ccc(C3(C)C(=O)NC(=O)NC3=O)cc2)c2ccccc2n1 as the molecule, how does the IC50 read?
Its IC50 is 1.03 µM.

For Cc1cc(COc2ccc(C(=O)NC3(C)C(=O)NC(=O)NC3=O)cc2)c2ccccc2n1, which IC50 is on record?
The IC50 was > 100 µM.

Which IC50 does the source give for Cc1cc(COc2ccc(C(=O)NC(c3ccncc3)C3(C)C(=O)NC(=O)NC3=O)cc2)c2ccccc2n1 (stereo not given) here?
The IC50 was 2.36 µM.

With Cc1cc(COc2ccc(C(=O)NC3CCCCC34C(=O)NC(=O)NC4=O)cc2)c2ccccc2n1 (stereo not given) as the molecule, how does the IC50 read?
Its IC50 is 0.138 µM.

How did the IC50 turn out when Cc1cc(COc2ccc(NC(=O)CC3(C)C(=O)NC(=O)NC3=O)cc2)c2ccccc2n1 was run?
Its IC50 is 12 µM.

How did the IC50 turn out when Cc1cc(COc2ccc(/C=C/CC3(C)C(=O)NC(=O)NC3=O)cc2)c2ccccc2n1 was run?
Its IC50 is 11 µM.

How did the IC50 turn out when Cc1cc(COc2ccc(CCC3(C)C(=O)NC(=O)NC3=O)cc2)c2ccccc2n1 was run?
The IC50 was 49 µM.

Cc1cc(COc2ccc(CCCC3(C)C(=O)NC(=O)NC3=O)cc2)c2ccccc2n1 was tested. Which IC50 did it give?
The IC50 was > 100 µM.

How did the IC50 turn out when Cc1cc(COc2ccc(CC3(C)C(=O)NC(=O)NC3=O)cc2)c2ccccc2n1 was run?
Its IC50 is 2.2 µM.

Which IC50 does the source give for Cc1cc(COc2ccc(C(=O)CCC3(C)C(=O)NC(=O)NC3=O)cc2)c2ccccc2n1 here?
The IC50 was 0.8 µM.

Which IC50 does the source give for Cc1cc(COc2ccc(C(=O)NCC3(C4CCNCC4)C(=O)NC(=O)NC3=O)cc2)c2ccccc2n1 here?
The IC50 was 0.055 µM.

How did the IC50 turn out when Cc1cc(COc2ccc(C(=O)NC3COCC34C(=O)NC(=O)NC4=O)cc2)c2ccccc2n1 (stereo not given) was run?
Its IC50 is 0.044 µM.

With Cc1cc(COc2ccc(C(=O)NCC3(N4CCN(C(=O)C(C)(C)C)CC4)C(=O)NC(=O)NC3=O)cc2)c2ccccc2n1 as the molecule, how does the IC50 read?
Its IC50 is 0.029 µM.

With Cc1cc(COc2ccc(C(=O)NCC3(Cc4ccccc4)C(=O)NC(=O)NC3=O)cc2)c2ccccc2n1 as the molecule, how does the IC50 read?
The IC50 was 0.018 µM.

For Cc1cc(COc2ccc(C(=O)NCC3(C4CCN(C(=O)C(C)(C)C)CC4)C(=O)NC(=O)NC3=O)cc2)c2ccccc2n1, which IC50 is on record?
The IC50 was 0.013 µM.

Which IC50 does the source give for Cc1cc(COc2ccc(OC3(C)C(=O)NC(=O)NC3=O)cc2)c2ccccc2n1 here?
Its IC50 is 1.3 µM.

How did the IC50 turn out when Cc1cc(COc2ccc(C(=O)NC3CN(S(C)(=O)=O)CC34C(=O)NC(=O)NC4=O)cc2)c2ccccc2n1 (stereo not given) was run?
The IC50 was 0.036 µM.

How did the IC50 turn out when Cc1cc(COc2ccc(C(=O)NCC3(C4CCN(C5CCOCC5)CC4)C(=O)NC(=O)NC3=O)cc2)c2ccccc2n1 was run?
The IC50 was 0.031 µM.

Which IC50 does the source give for Cc1cc(COc2ccc(CC(=O)NCC3(C)C(=O)NC(=O)NC3=O)cc2)c2ccccc2n1 here?
Its IC50 is > 100 µM.

What follows are molecules tested against 72 kDa type IV collagenase (Homo sapiens, UniProt P08253) (assay: Inhibition of MMP2).
72 kDa type IV collagenase, sequence (P08253 whole entry): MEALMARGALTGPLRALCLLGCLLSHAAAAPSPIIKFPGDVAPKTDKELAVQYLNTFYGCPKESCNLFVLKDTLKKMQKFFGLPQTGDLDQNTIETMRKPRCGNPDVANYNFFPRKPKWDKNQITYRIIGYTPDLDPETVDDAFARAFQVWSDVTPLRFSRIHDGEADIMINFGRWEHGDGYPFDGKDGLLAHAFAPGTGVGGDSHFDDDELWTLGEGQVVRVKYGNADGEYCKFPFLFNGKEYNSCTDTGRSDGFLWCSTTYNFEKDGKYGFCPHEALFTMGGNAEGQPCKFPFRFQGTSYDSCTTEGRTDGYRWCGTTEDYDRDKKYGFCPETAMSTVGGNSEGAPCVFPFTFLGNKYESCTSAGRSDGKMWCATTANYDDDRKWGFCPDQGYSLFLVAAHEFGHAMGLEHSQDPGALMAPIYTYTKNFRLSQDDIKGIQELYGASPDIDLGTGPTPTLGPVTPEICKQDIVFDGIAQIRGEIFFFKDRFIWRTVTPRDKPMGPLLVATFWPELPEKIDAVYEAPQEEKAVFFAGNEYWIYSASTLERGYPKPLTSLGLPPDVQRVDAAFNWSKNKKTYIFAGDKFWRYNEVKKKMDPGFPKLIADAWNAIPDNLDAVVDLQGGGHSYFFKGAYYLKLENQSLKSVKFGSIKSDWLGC

Cc1cc(COc2ccc(C(=O)NC3CCCCC34C(=O)NC(=O)NC4=O)cc2)c2ccccc2n1 (stereo not given) was tested. Which Ki did it give?
Its Ki is 0.11 µM.

Cc1cc(COc2ccc(C(=O)NCC3(C4CCNCC4)C(=O)NC(=O)NC3=O)cc2)c2ccccc2n1 was tested. Which Ki did it give?
Its Ki is > 3.33 µM.

Which Ki does the source give for Cc1cc(COc2ccc(C(=O)NC3COCC34C(=O)NC(=O)NC4=O)cc2)c2ccccc2n1 (stereo not given) here?
The Ki was > 3.33 µM.

Which Ki does the source give for Cc1cc(COc2ccc(C(=O)NCC3(N4CCN(C(=O)C(C)(C)C)CC4)C(=O)NC(=O)NC3=O)cc2)c2ccccc2n1 here?
Its Ki is 0.02 µM.

Cc1cc(COc2ccc(C(=O)NCC3(Cc4ccccc4)C(=O)NC(=O)NC3=O)cc2)c2ccccc2n1 was tested. Which Ki did it give?
Its Ki is 0.37 µM.

With Cc1cc(COc2ccc(C(=O)NCC3(C4CCN(C(=O)C(C)(C)C)CC4)C(=O)NC(=O)NC3=O)cc2)c2ccccc2n1 as the molecule, how does the Ki read?
Its Ki is > 3.33 µM.

Cc1cc(COc2ccc(C(=O)NC3CN(S(C)(=O)=O)CC34C(=O)NC(=O)NC4=O)cc2)c2ccccc2n1 (stereo not given) was tested. Which Ki did it give?
The Ki was > 3.33 µM.

Which Ki does the source give for Cc1cc(COc2ccc(C(=O)NCC3(C4CCN(C5CCOCC5)CC4)C(=O)NC(=O)NC3=O)cc2)c2ccccc2n1 here?
Its Ki is > 3.33 µM.

What follows are molecules tested against Stromelysin-1 (Homo sapiens, UniProt P08254) (assay: Inhibition of MMP3).
Stromelysin-1, sequence (P08254 whole entry): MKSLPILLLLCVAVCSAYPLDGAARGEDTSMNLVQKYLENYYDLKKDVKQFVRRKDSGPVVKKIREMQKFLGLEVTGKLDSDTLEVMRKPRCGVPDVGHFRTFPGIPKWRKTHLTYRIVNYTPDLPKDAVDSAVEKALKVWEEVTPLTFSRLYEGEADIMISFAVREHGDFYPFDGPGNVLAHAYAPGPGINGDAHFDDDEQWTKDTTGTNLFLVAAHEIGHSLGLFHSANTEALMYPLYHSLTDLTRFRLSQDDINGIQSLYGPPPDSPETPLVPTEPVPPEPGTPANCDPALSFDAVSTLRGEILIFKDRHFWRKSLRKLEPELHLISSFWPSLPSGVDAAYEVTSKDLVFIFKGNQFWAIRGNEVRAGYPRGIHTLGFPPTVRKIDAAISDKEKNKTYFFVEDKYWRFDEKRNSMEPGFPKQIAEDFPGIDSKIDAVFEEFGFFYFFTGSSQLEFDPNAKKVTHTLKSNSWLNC

Which Ki does the source give for Cc1cc(COc2ccc(C(=O)NCC3(C4CCNCC4)C(=O)NC(=O)NC3=O)cc2)c2ccccc2n1 here?
The Ki was > 4.5 µM.

How did the Ki turn out when Cc1cc(COc2ccc(C(=O)NC3COCC34C(=O)NC(=O)NC4=O)cc2)c2ccccc2n1 (stereo not given) was run?
Its Ki is > 4.5 µM.

Which Ki does the source give for Cc1cc(COc2ccc(C(=O)NCC3(N4CCN(C(=O)C(C)(C)C)CC4)C(=O)NC(=O)NC3=O)cc2)c2ccccc2n1 here?
The Ki was > 4.5 µM.

With Cc1cc(COc2ccc(C(=O)NCC3(Cc4ccccc4)C(=O)NC(=O)NC3=O)cc2)c2ccccc2n1 as the molecule, how does the Ki read?
Its Ki is 3.69 µM.

Which Ki does the source give for Cc1cc(COc2ccc(C(=O)NCC3(C4CCN(C(=O)C(C)(C)C)CC4)C(=O)NC(=O)NC3=O)cc2)c2ccccc2n1 here?
Its Ki is > 4.5 µM.

For Cc1cc(COc2ccc(C(=O)NC3CN(S(C)(=O)=O)CC34C(=O)NC(=O)NC4=O)cc2)c2ccccc2n1 (stereo not given), which Ki is on record?
The Ki was > 4.5 µM.

Cc1cc(COc2ccc(C(=O)NCC3(C4CCN(C5CCOCC5)CC4)C(=O)NC(=O)NC3=O)cc2)c2ccccc2n1 was tested. Which Ki did it give?
Its Ki is > 4.5 µM.
